Reference: patent US20260240878A1, “PTP1B/TC-PTP DUAL INHIBITORS AND PROTEIN DEGRADERS” (Purdue Research Foundation, priority 2023, published 2026)
*1 amine or outer side, *2 acyl side, *3 side chain or, on linkers, in order; H or OH if unused. Where a SMILES comes first, the peptide text is derived from it. [ ]: non-standard residue; d: D form. The star is where a group is joined. NHBn(4-(4-Me-thiazol-5-yl)) = Cc1ncsc1-c1ccc(CN*)cc1; F2Pmp = N[C@@H](Cc1ccc(C(F)(F)P(=O)(O)O)cc1)C(=O)O; Phenylacetyl(4-OH,3-OMe) = COc1cc(CC(=O)*)ccc1O; Benzoyl(3-Br,4-Me) = Cc1ccc(C(=O)*)cc1Br; NH(CH2)9CO = O=C(CCCCCCCCCN[*:1])[*:2]; Hyp = O=C(O)[C@@H]1C[C@@H](O)CN1; dHyp = O=C(O)[C@H]1C[C@H](O)CN1; dTle = CC(C)(C)[C@@H](N)C(=O)O; Tle = CC(C)(C)[C@H](N)C(=O)O; 12Ado = NCCCCCCCCCCCC(=O)O; Ahp = NCCCCCCC(=O)O; Ava = NCCCCC(=O)O

Columns and labels:
[1] = target: T1, PTP1B (Homo sapiens, UniProt P18031); assay: PTP activity assay with pNPP substrate (IC50, Ki, mode of inhibition); assay type: biochemical; conditions: for IC50: pNPP 2 mM, pH 7.0, 25° C., read-out: IC50, nM PTP1B
T1 sequence (P18031 1-435): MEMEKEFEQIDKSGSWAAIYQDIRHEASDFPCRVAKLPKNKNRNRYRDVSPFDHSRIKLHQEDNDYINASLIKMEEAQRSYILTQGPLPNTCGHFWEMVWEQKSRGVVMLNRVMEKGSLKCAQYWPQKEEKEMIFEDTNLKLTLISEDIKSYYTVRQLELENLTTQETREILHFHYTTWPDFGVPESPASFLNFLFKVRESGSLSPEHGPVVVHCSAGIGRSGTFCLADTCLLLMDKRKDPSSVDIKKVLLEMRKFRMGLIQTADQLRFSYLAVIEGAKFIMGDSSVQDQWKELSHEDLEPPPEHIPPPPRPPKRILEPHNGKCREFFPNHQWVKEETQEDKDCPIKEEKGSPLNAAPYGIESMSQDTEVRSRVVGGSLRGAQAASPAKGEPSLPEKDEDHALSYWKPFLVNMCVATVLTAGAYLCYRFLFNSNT
Procedure: (§1) PTP activity was assayed using p-nitrophenyl phosphate (pNPP) as a substrate in DMG buffer (50 mM DMG. pH 7.0, 1 mM EDTA, 150 mM NaCl, 2 mM DTT, 0.1 mg/mL BSA) at 25° C. The assays were performed in 96-well plates. Normally, to determine the IC50 values, the reaction was initiated by the addition of enzyme (for PTP1B and TCPTP, the final concentration was 0.4 nM, for other PTPs, the final concentration was 10 nM) to a reaction mixture (0.2 mL) containing 2 mM (Km for the substrate) pNPP with various concentrations of inhibitors (see FIG. 1). The reaction rate was measured using a SpectraMax Plus 384 Microplate Spectrophotometer (Molecular Devices). Data were fitted using SigmaPlot Enzyme Kinetics Module (Systat Software, Inc.). To determine the mode of inhibition, the reactions were initiated by the addition of enzyme (final concentration for TC-PTP and PTP1B was 0.4 nM) to the reaction mixtures (0.2 mL) containing various concentrations of pNPP with different concentrations of the inhibitor. Data were fitted using SigmaPlot Enzyme Kinetics Module (Systat Software. Inc.).

[2] = target: T2, TC-PTP (Homo sapiens, UniProt P17706); assay: as above; assay type: biochemical; conditions: for IC50: pNPP 2 mM, pH 7.0, 25° C., read-out: IC50, nM TC-PTP
T2 sequence (P17706 1-415): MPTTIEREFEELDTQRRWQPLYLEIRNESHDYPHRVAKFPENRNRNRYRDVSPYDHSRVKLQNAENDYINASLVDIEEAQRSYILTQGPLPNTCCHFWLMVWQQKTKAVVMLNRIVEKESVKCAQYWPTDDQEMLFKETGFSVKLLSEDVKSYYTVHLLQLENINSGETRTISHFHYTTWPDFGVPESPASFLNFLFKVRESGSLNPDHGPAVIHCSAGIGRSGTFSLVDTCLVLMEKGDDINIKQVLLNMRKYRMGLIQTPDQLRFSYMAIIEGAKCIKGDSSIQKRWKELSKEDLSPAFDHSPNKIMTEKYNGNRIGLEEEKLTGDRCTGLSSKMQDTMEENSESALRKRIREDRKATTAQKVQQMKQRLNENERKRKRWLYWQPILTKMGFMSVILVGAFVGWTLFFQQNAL
Procedure: as §1

[3] = target: T1, PTP1B; assay: Degradation assay in HEK293 cells (immunoblotting); assay type: cell-based; design: Degradation assay was conducted in HEK293 cells with 1 μM degrader and 24 hours incubation; endogenous in cells; host or cells: HEK293; conditions: 1 μM degrader, 24 hours
Procedure: (§2) HEK293. MIAPaCa-2, HepG2, U2OS, H116, MEF, B16F10, and MC38 cells, were grown in DMEM, while Jurkat and H358 cells were grown in RPMI 1640 supplemented with 10% fetal bovine serum, penicillin (50 units/mL), and streptomycin (50 μg/mL) in a 37° C. incubator containing 5% CO2. 20 ng/ml human (Biolegend #713906) or mouse (Biolegend #714006) Interferon-γ were used for JAK/STAT pathway stimulation.
(§3) Tissues or cultured cells were lysed with ice-cold lysis buffer (50 mM Tris (pH 8.0, 150 mM NaCl, 10% Glycerol, 1% Triton-X-100) supplied with phosphatase inhibitor (Bimake) and protease inhibitor mixture (Roche Applied Science). Equal amounts of protein were resolved by SDS-PAGE, transferred to nitrocellulose membrane, and subjected to immunoblotting. Antibodies used in this study include anti-following proteins: pSTAT1^Tyr701 (Cell Signaling Technology #9167, 1:3000), GAPDH (Cell Signaling Technology #97166, 1:5000), pJAK1^Tyr1034/1035 (Cell Signaling Technology #74129, 1:1000), pJAK2^Tyr1007/1008 (Cell Signaling Technology #3776, 1:1000), TC-PTP (Abcam #ab180764, 1:3000). PTP1B (Abcam #ab244207, 1:1500).
(§4) Degradation assay was conducted in HEK293 cells with 1 μM degrader and 24 hours incubation.
(§5) The degradation assay was conducted in HEK293 cells with 0.2 μM degrader and 16 hours incubation.

[4] = target: T2, TC-PTP; assay: Degradation assay in HEK293 cells (immunoblotting); assay type: cell-based; design: Degradation assay was conducted in HEK293 cells with 1 μM degrader and 24 hours incubation; endogenous in cells; host or cells: HEK293; conditions: 1 μM degrader, 24 hours, read-out: % Protein Degradation TC-PTP
Procedure: as §2, §3, §4, §5

[5] = target: T2, TC-PTP; assay: Degradation assay in HEK293 cells (immunoblotting); assay type: cell-based; design: endogenous in cells; host or cells: HEK293; conditions: 0.2 μM degrader, 16 hours, read-out: % Protein Degradation TC-PTP
Procedure: as §2, §3, §4, §5

**Q.** What does the source list for COc1cc(CC(=O)N[C@@H](Cc2ccccc2)C(=O)N[C@@H](Cc2ccc(C(F)(F)P(=O)(O)O)cc2)C(=O)N[C@@H](CCCCNC(=O)c2ccc(C)c(Br)c2)C(=O)NCCCCC(=O)N[C@@H](C(=O)N2C[C@@H](O)C[C@@H]2C(=O)NCc2ccc(-c3scnc3C)cc2)C(C)(C)C)ccc1O [Compound 6, ((4-((S)-3-(((S)-6-(3-bromo-4-methylbenzamido)-1-((5-(((R)-1-((2R,4S)-4-hydroxy-2-((4-(4-methylthiazol-5-yl)benzyl)carbamoyl)pyrrolidin-1-yl)-3,3-dimethyl-1-oxobutan-2-yl)amino)-5-oxopentyl)amino)-1-oxohexan-2-yl)amino)-2-((S)-2-(2-(4-hydroxy-3-methoxyphenyl)acetamido)-3-phenylpropanamido)-3-oxopropyl)phenyl)difluoromethyl)phosphonic Acid] ({Phenylacetyl(4-OH,3-OMe)}-F[F2Pmp]K(Benzoyl(3-Br,4-Me))[Ava][dTle][dHyp]-{NHBn(4-(4-Me-thiazol-5-yl))})?
**A.** IC50 [1]: 29.4 ± 2.1 nM; IC50 [2]: 34.3 ± 14.8 nM; % Protein Degradation PTP1B [3]: 53%; percent TC-PTP degradation at 1 µM [4]: 58%

**Q.** Which IC50 [1] does the source give for COc1cc(CC(=O)N[C@@H](Cc2ccccc2)C(=O)N[C@@H](Cc2ccc(C(F)(F)P(=O)(O)O)cc2)C(=O)N[C@@H](CCCCNC(=O)c2ccc(C)c(Br)c2)C(=O)NCCCCCCC(=O)N[C@@H](C(=O)N2C[C@@H](O)C[C@@H]2C(=O)NCc2ccc(-c3scnc3C)cc2)C(C)(C)C)ccc1O [Compound 10, ((4-((S)-3-(((S)-6-(3-bromo-4-methylbenzamido)-1-((7-(((R)-1-((2R,4S)-4-hydroxy-2-((4-(4-methylthiazol-5-yl)benzyl)carbamoyl)pyrrolidin-1-yl)-3,3-dimethyl-1-oxobutan-2-yl)amino)-7-oxoheptyl)amino)-1-oxohexan-2-yl)amino)-2-((S)-2-(2-(4-hydroxy-3-methoxyphenyl)acetamido)-3-phenylpropanamido)-3-oxopropyl)phenyl)difluoromethyl)phosphonic Acid] ({Phenylacetyl(4-OH,3-OMe)}-F[F2Pmp]K(Benzoyl(3-Br,4-Me))[Ahp][dTle][dHyp]-{NHBn(4-(4-Me-thiazol-5-yl))}) here?
**A.** Its IC50 is 7.4 ± 0.6 nM.

**Q.** What about the IC50 [2] of the same compound?
**A.** The IC50 was 6.8 ± 0.6 nM.

**Q.** And the “% Protein Degradation PTP1B” value [3]?
**A.** The value was 61%.

**Q.** And the percent TC-PTP degradation at 1 µM [4]?
**A.** Its percent TC-PTP degradation at 1 µM is 69%.

**Q.** Which IC50 [1] does the source give for COc1cc(CC(=O)N[C@@H](Cc2ccccc2)C(=O)N[C@@H](Cc2ccc(C(F)(F)P(=O)(O)O)cc2)C(=O)N[C@@H](CCCCNC(=O)c2ccc(C)c(Br)c2)C(=O)NCCCCCCCCCC(=O)N[C@H](C(=O)N2C[C@H](O)C[C@H]2C(=O)NCc2ccc(-c3scnc3C)cc2)C(C)(C)C)ccc1O [Compound 14, ((4-((S)-3-(((S)-6-(3-bromo-4-methylbenzamido)-1-((10-(((S)-1-((2S,4R)-4-hydroxy-2-((4-(4-methylthiazol-5-yl)benzyl)carbamoyl)pyrrolidin-1-yl)-3,3-dimethyl-1-oxobutan-2-yl)amino)-10-oxodecyl)amino)-1-oxohexan-2-yl)amino)-2-((S)-2-(2-(4-hydroxy-3-methoxyphenyl)acetamido)-3-phenylpropanamido)-3-oxopropyl)phenyl)difluoromethyl)phosphonic Acid] ({Phenylacetyl(4-OH,3-OMe)}-F[F2Pmp]K(Benzoyl(3-Br,4-Me))[NH(CH2)9CO][Tle][Hyp]-{NHBn(4-(4-Me-thiazol-5-yl))}) here?
**A.** The IC50 was 10.3 ± 0.6 nM.

**Q.** What about the IC50 [2] of the same compound?
**A.** The IC50 was 6.8 ± 0.3 nM.

**Q.** And the “% Protein Degradation PTP1B” value [3]?
**A.** The value was 38%.

**Q.** What about the percent TC-PTP degradation at 1 µM [4] of the same compound?
**A.** Its percent TC-PTP degradation at 1 µM is 62%.

**Q.** Which results are given for COc1cc(CC(=O)N[C@@H](Cc2ccccc2)C(=O)N[C@@H](Cc2ccc(C(F)(F)P(=O)(O)O)cc2)C(=O)N[C@@H](CCCCNC(=O)c2ccc(C)c(Br)c2)C(=O)NCCCCCCCCCCCC(=O)N[C@H](C(=O)N2C[C@H](O)C[C@H]2C(=O)NCc2ccc(-c3scnc3C)cc2)C(C)(C)C)ccc1O [Compound 18, ((4-((S)-3-(((S)-6-(3-bromo-4-methylbenzamido)-1-((12-(((S)-1-((2S,4R)-4-hydroxy-2-((4-(4-methylthiazol-5-yl)benzyl)carbamoyl)pyrrolidin-1-yl)-3,3-dimethyl-1-oxobutan-2-yl)amino)-12-oxododecyl)amino)-1-oxohexan-2-yl)amino)-2-((S)-2-(2-(4-hydroxy-3-methoxyphenyl)acetamido)-3-phenylpropanamido)-3-oxopropyl)phenyl)difluoromethyl)phosphonic Acid] ({Phenylacetyl(4-OH,3-OMe)}-F[F2Pmp]K(Benzoyl(3-Br,4-Me))[12Ado][Tle][Hyp]-{NHBn(4-(4-Me-thiazol-5-yl))})?
**A.** IC50 [1]: 22.3 ± 1.1 nM; IC50 [2]: 8.9 ± 0.6 nM; % Protein Degradation PTP1B [3]: 29%; percent TC-PTP degradation at 1 µM [4]: 30%

**Q.** Which Ki ([1]; PTP1B-catalyzed pNPP hydrolysis) does the source give for COc1cc(CC(=O)N[C@@H](Cc2ccccc2)C(=O)N[C@@H](Cc2ccc(C(F)(F)P(=O)(O)O)cc2)C(=O)N[C@@H](CCCCNC(=O)c2ccc(C)c(Br)c2)C(N)=O)ccc1O [Example 7, ((4-((S)-3-(((S)-1-amino-6-(3-bromo-4-methylbenzamido)-1-oxohexan-2-yl)amino)-2-((S)-2-(2-(4-hydroxy-3-methoxyphenyl)acetamido)-3-phenylpropanamido)-3-oxopropyl)phenyl)difluoromethyl)phosphonic Acid] here?
**A.** The Ki was 2.4 nM.

**Q.** And the IC50 [1]?
**A.** Its IC50 is 4.7 ± 0.3 nM.

**Q.** What about the Ki ([2]; TC-PTP catalyzed pNPP hydrolysis) of the same compound?
**A.** Its Ki is 3.6 nM.

**Q.** And the IC50 [2]?
**A.** Its IC50 is 7.1 ± 0.4 nM.

**Q.** What about the percent TC-PTP degradation at 1 µM [4] of the same compound?
**A.** The percent TC-PTP degradation at 1 µM was 0%.

**Q.** What about the percent TC-PTP degradation at 0.2 µM [5] of the same compound?
**A.** The percent TC-PTP degradation at 0.2 µM was 0%.
